Here are results for 7 compounds from article PMC7801115, “Preclinical in vitro screening of newly synthesised amidino substituted benzimidazoles and benzothiazoles” (Journal of Enzyme Inhibition and Medicinal Chemistry, 2021).

One data set in a line: Kinetic solubility. Type of data set: physicochemical. The settings on record: aqueous buffer, kinetic from dmso stock, phosphate buffer 50 mM, pH 7.4, 1% DMSO, 37 °C. The method, then: Test compounds and assay controls (sulfaphenazole and α-naphtoflavone) were serially diluted in DMSO by factor 3.3x, 3x, 3.3x and 3x, resulting in a total of 5 different concentrations. Phosphate buffer (50 mM, pH 7.4) was spiked with diluted test compounds and controls with final concentration range in the assay as follows: 100, 30, 10, 3 and 1 µM (1% DMSO). Plate was then incubated by gentle shaking (200–300 rpm) for 1 h and 45 min at 37 °C. After additional15 min on room temperature (without shaking), plate absorbance at 620 nm was measured with microplate reader Tecan, Infinite F500 (total incubation time = 2 h).

Data set [1] deals with P-glycoprotein (human MDR1). In words: MDCKII-MDR1 permeability and P-glycoprotein substrate assay. The class given is in vitro ADME, canine cells over-expressing human MDR1. The following applies: dog; for efflux ratio at 60 min, 10 µM: MDCK-MDR1, pH 7.4, without P-gp inhibitor; for Papp A→B at 60 min, 10 µM / Papp B→A at 60 min, 10 µM: MDCK-MDR1, pH 7.4, without P-gp inhibitor; for Papp A→B at 60 min, 10 µM: read-out: MDCKII-MDR1 Papp(A2B); for Papp B→A at 60 min, 10 µM: read-out: MDCKII-MDR1 Papp(B2A). As for the experimental part: Permeability and P-glycoprotein substrate assessment was done on MDCKII-hMDR1, Madin-Darby canine epithelial cells over-expressing human MDR1 gene, coding for P-glycoprotein.
Cells were prepared for transport studies by seeding on 96-well cell culture inserts (Millipore, MA, USA) in a concentration of 0.25 × 10^6 cells per ml. The cells were fed with fresh medium 24 h post seeding and cultured to confluence for 3 days before use. On the day of experiment, the cell monolayers were washed and equilibrated with transport medium (DPBS, pH 7.4 containing 1% DMSO) with or without P-gp specific inhibitor, elacridar (2 µM) for 45 min (37 °C, 5% CO2, 95% humidity). Test compound solution consisted of test substance (10 μM) in D-PBS medium containing lucifer yellow (100 μM) and 1% DMSO. Transport assays were conducted in apical to basolateral (A2B) and basolateral to apical (B2A) directions, respectively. Monolayers were incubated with the compound solution for 60 min at 37 °C under gentle agitation. Apical and basolateral compartments were sampled at the end of the transport experiment, while donor solutions were also sampled at the beginning of the experiment in order to determine initial concentration. Test substance concentrations in both compartments were determined by LC-MS/MS. There were several controls used in the assay: 1) amprenavir (0.5 μM) served as a low permeable control, being also a P-gp substrate; 2) diclofenac (10 μM) was used as a high permeable control; 3) Lucifer yellow, a fluorescent marker for the paracellular membrane transport, was used as a control of cell monolayer integrity.
(§1) All ADME samples were analysed on a Sciex API 4000 or Sciex API4500 Triple Quadrupole Mass Spectrometer (Sciex, Framingham, MA, USA) coupled to a UHPLC System (Shimadzu Nexera X2; Shimadzu, Kyoto, Japan). Samples were injected onto an UPLC column (HALO2 C18, 2.1 × 20 mm, 2 µm or Phenomenex Luna Omega Polar C18, 30 × 2.1 mm, 1.6 µm) and eluted with a gradient at temperature of 50 °C. The mobile phase was composed of acetonitrile (with 0.1% formic acid) and 0.1% formic acid in deionised water. A total run time was 1 or 1.5 min, with the flow rate of 0.7 ml/min (under gradient conditions). A positive ion mode with turbo spray, an ion source temperature of 500 °C and a dwell time of 150 ms were utilised for mass spectrometric detection. Multiple reaction monitoring (MRM) was used at the specific transitions for each compound/control tested: compound 5c: 361.9 → 304.9; compound 5d: 344.8 → 287.9; compound 5e: 349.8 → 292.9; compound 5 g: 350.8 → 293.9; compound 5 h: 344.0 → 286.9; compound 6a: 276.9 → 220.0; compound 5 b: 319.0 → 262.0; compound 6 b: 302.1 → 245.1; compound 6c: 344.9 → 288.0; compound 6d: 333.0 → 276.0; compound 6e: 316.1 → 259.0; compound 6f: 327.1 → 270.0; compound 6 g: 377.1 → 320.1; testosterone: 289.3→ 97.1; propranolol: 260.1 → 182.8; caffeine: 195.2 → 138.1; acebutolol: 337.2 → 116.2, nicardipine: 480.2 → 315.0; verapamil: 455.4 → 165.1; amprenavir: 506.2 → 245.4; diclofenac: 296.1 → 213.7 or 296.2 → 215.3; eucatropine: 292.2 → 109.1; benfluorex: 352.1 → 230.3, and warfarin: 309.2 → 163.2

A short description of a further data set: Stability in plasma. The class given is in vitro ADME. The settings on record: 37 °C. The method, then:
Tested compounds (final concentration of 5 µM, 0.5% DMSO) were incubated for 4 h at 37 °C in human and mouse plasma, respectively. Aliquots were taken at different time points (0, 30, 120 and 240 min) and reaction was terminated by addition of a MeCN/MeOH (2:1) mixture, containing internal standard (diclofenac). Samples were then centrifuged (at 4500 rpm, at 4 °C, for 30 min) and resulting supernatants were subjected to LC-MS/MS analysis. The same procedure was followed for controls used in the assay: propranolol (both species), benfluorex (mouse) and eucatropine (human), respectively.
as §1

For a further data set, the system named is NCI-H358. Nature of the data set: BrdU proliferation assay, 2D cell culture. The settings on record: Homo sapiens, NCI-H358, 2D cell culture, ±SD, N = 2. Type of data set: cell-based. As for the experimental part:
(§2) Cells were grown in 96 well cell star polystyrene plates. 10,000 cells/well were seeded in wells 4 h prior the treatment with different compounds concentrations and incubated for 72 h. A cell viability assay was performed according to the manufacturer’s instruction, using CellTiter 96 aqueous solution, MTS kit (Promega, Madison, WI, USA). After 0.5–2 h of cell incubation with MTS in 2 D cell culture, the plates were read using PE EnVision absorbance at 490 nm. […] Since we prefer homogeneous assays (mix and read procedures) and therefore MTS is more practical (one step less than MTT). MTS is more sensitive and accurate in comparison with MTT assay.
(§3) Proliferation assay was performed using Cell Proliferation ELISA, BrdU (Sigma, St. Louis, MO, USA). Briefly, 48 h hours after compound addition, 10 µM of BrdU was added to each well and incubated for following 24 h. After incubation, single cell suspension was made for 3 D cell culture in the new 96 well plate. Plates were centrifuged and supernatants were removed from each plate (for 2 D and 3 D cell culture) followed by 60 min incubation at 60° C. The rest of the proliferation assay was performed according to the manufacturer instructions.
(§4) Calculation of IC50 data, curves and QC analysis is made by using Excel tools and GraphPadPrism software (La Jolla, CA), v. […] QC criteria parameters (Z', S:B, R2, HillSlope) were checked for every IC50 curve.

The next data set relates to HCC827. Nature of the data set: BrdU proliferation assay, 2D cell culture. The class given is cell-based. The following applies: Homo sapiens, HCC827, 2D cell culture, ±SD, N = 2. The method, then: as §2, §3, §4

Bounds are passed on as bounds.

The solubility (kinetic) is the concentration staying in solution when a stock, usually in DMSO, is diluted into the medium. Broadly, the efflux ratio is the permeability from basolateral to apical divided by that in the opposite direction, in the common usage. One may read the amount remaining as the share of the starting amount still present when the sample was taken. Lower therefore signals more turnover. In general, IC50 refers to the concentration that gives 50% inhibition. A low value points to inhibition by little substance.

For `Cl.N#Cc1ccc(-c2nc3ccc(C4=NCCCN4)cc3s2)cc1` [Compound 5b, 2–(4-Cyanophenyl)-6–(3,4,5,6-tetrahydropyrimidin-1-ium-2-yl)benzothiazole chloride], the solubility (kinetic) at 2 h in the data set “Kinetic solubility” is more than 100 µM. In addition, in data set [1], the efflux ratio at 60 min, 10 µM came to 35.4; the Papp A→B at 60 min, 10 µM stood at 0.59 ×10⁻⁶ cm/s; the Papp B→A at 60 min, 10 µM was determined as 20.5 ×10⁻⁶ cm/s. In addition, in the data set “Stability in plasma” (human plasma), the share remaining at 4 h, 5 µM is 86%. In addition, the share remaining at 4 h, 5 µM in the data set “Stability in plasma” (mouse plasma) worked out at 95%. In the data set with NCI-H358, this compound came in with an IC50 of more than 50 µM. Also, the half-maximal inhibitory concentration (IC50) in the data set with HCC827 is more than 50 µM.

In the case of `Cl.FC(F)(F)c1ccc(-c2nc3ccc(C4=NCCCN4)cc3s2)cc1` [Compound 5c, 2–(4-Trifluoromethylphenyl)-6–(3,4,5,6-tetrahydropyrimidin-1-ium-2-yl)benzothiazole chloride], the solubility (kinetic) at 2 h in “Kinetic solubility” was more than 100 µM. Further, in data set [1], the efflux ratio at 60 min, 10 µM is more than 200; the Papp A→B at 60 min, 10 µM was less than 0.1 ×10⁻⁶ cm/s; the Papp B→A at 60 min, 10 µM was determined as 21.5 ×10⁻⁶ cm/s. Also, the share remaining at 4 h, 5 µM in the data set “Stability in plasma” (human plasma) worked out at 83%. The compound further registered an amount remaining at 4 h, 5 µM in the data set “Stability in plasma” (mouse plasma) of 94%. The same compound gave an IC50 with NCI-H358 of 16 ± 4.14 µM. The compound also returned an IC50 in the data set with HCC827 of 15 ± 2.18 µM.

`Cl.c1ccc2nc(-c3nc4ccc(C5=NCCCN5)cc4s3)ccc2c1` [Compound 5d, 2-(Quinoline-2-yl)-6–(3,4,5,6-tetrahydropyrimidin-1-ium-2-yl)benzothiazole chloride]: in “Kinetic solubility”, the solubility (kinetic) at 2 h lay in the range of 30 to 100 µM. Also, in data set [1], the efflux ratio at 60 min, 10 µM was more than 158; the Papp A→B at 60 min, 10 µM was less than 0.1 ×10⁻⁶ cm/s; the Papp B→A at 60 min, 10 µM is 15.8 ×10⁻⁶ cm/s. This compound also showed a fraction remaining at 4 h, 5 µM in the data set “Stability in plasma” (human plasma) of 81%. In “Stability in plasma” (mouse plasma), the share remaining at 4 h, 5 µM worked out at 85%. The compound further yielded a half-maximal inhibitory concentration (IC50) in the data set on NCI-H358 of 9 ± 0.31 µM. In the data set with HCC827, this compound gave an IC50 of 11 ± 0.17 µM.

In “Kinetic solubility”, `Cl.c1ccc2sc(-c3nc4ccc(C5=NCCCN5)cc4s3)cc2c1` [Compound 5e, 2-(Benzo[b]thiophen-2-yl)-6–(3,4,5,6-tetrahydropyrimidin-1-ium-2-yl)benzothiazole chloride] showed a solubility (kinetic) at 2 h of 30 to 100 µM. Also, the efflux ratio at 60 min, 10 µM in data set [1] is more than 78. Further, the Papp A→B at 60 min, 10 µM in data set [1] was less than 0.1 ×10⁻⁶ cm/s. Also, the Papp B→A at 60 min, 10 µM in data set [1] is 7.6 ×10⁻⁶ cm/s. The amount remaining at 4 h, 5 µM came to 82% in the data set “Stability in plasma” (human plasma) and 77% in the data set “Stability in plasma” (mouse plasma). For the same compound, the concentration for half-maximal inhibition (IC50) with NCI-H358 was found to be 9 ± 0.65 µM; with HCC827 it was 10 ± 1.21 µM.

For the compound `Cl.c1ccc2sc(-c3nc4ccc(C5=NCCCN5)cc4s3)nc2c1` [Compound 5g, 2-(Benzothiazole-2-yl)-6–(3,4,5,6-tetrahydropyrimidin-1-ium-2-yl)benzothiazole chloride], the solubility (kinetic) at 2 h in the data set “Kinetic solubility” was in the range of 30 to 100 µM. For the same compound, in data set [1], the efflux ratio at 60 min, 10 µM is more than 17; the Papp A→B at 60 min, 10 µM is less than 0.1 ×10⁻⁶ cm/s; the Papp B→A at 60 min, 10 µM came to 16.5 ×10⁻⁶ cm/s. The fraction remaining at 4 h, 5 µM in the data set “Stability in plasma” (human plasma) stood at 86%. The compound further returned an amount remaining at 4 h, 5 µM in the data set “Stability in plasma” (mouse plasma) of 81%. The compound also came in with a 50% inhibitory concentration (IC50) in the data set on NCI-H358 of 13 ± 0.45 µM. In the data set on HCC827, the midpoint of inhibition, the IC50, lay at 18 ± 0.76 µM.

The compound `Cl.c1ccc2cc(-c3nc4ccc(C5=NCCCN5)cc4s3)ccc2c1` [Compound 5h, 2-(Naphthalene-2-yl)-6–(3,4,5,6-tetrahydropyrimidin-1-ium-2-yl)benzothiazole chloride] gave a kinetic solubility at 2 h in “Kinetic solubility” of 10 to 30 µM. In data set [1], the efflux ratio at 60 min, 10 µM was more than 77; the Papp A→B at 60 min, 10 µM was less than 0.1 ×10⁻⁶ cm/s; the Papp B→A at 60 min, 10 µM amounted to 7.7 ×10⁻⁶ cm/s. The compound also had a fraction remaining at 4 h, 5 µM in “Stability in plasma” (human plasma) of 74%. Also, in “Stability in plasma” (mouse plasma), the fraction remaining at 4 h, 5 µM turned out to be 85%. Further, the IC50 in the data set with NCI-H358 was 7 ± 0.07 µM. The same compound returned an IC50 with HCC827 of 9 ± 0.83 µM.

`c1ccc(-c2nc3cc(C4=NCCCN4)ccc3[nH]2)cc1` [Compound 6a, 2-Phenyl-5(6)–(3,4,5,6-tetrahydropyrimidin-1-ium-2-yl)benzimidazole chloride]: the solubility (kinetic) at 2 h in “Kinetic solubility” is more than 100 µM. In addition, in data set [1], the efflux ratio at 60 min, 10 µM is 3.7; the Papp A→B at 60 min, 10 µM is 0.4 ×10⁻⁶ cm/s; the Papp B→A at 60 min, 10 µM was 1.4 ×10⁻⁶ cm/s. The same compound gave an amount remaining at 4 h, 5 µM in “Stability in plasma” (human plasma) of 73%. The compound further came in with a fraction remaining at 4 h, 5 µM in the data set “Stability in plasma” (mouse plasma) of 79%. Moreover, the IC50 in the data set on NCI-H358 amounted to 7 ± 0.3 µM. Also, half-maximal inhibition with HCC827 (IC50) required 7 ± 0.35 µM.
